Laboratory results reported in patent publication US6683076B2, “Methods for therapeutic use of glucosylceramide synthesis inhibitors and composition thereof” (Oxford Glyco-Sciences (UK) Ltd, priority 2000, dated 2004).
Read-outs that look alike come from different tables or passages of the source. Marks after values point to notes of the source that are not given here.

What was measured:
alpha-glucosidase 1 = target: T1, alpha-glucosidase 1 (Homo sapiens, UniProt Q13724); conditions: cited from earlier work
T1 sequence (Q13724 1-837): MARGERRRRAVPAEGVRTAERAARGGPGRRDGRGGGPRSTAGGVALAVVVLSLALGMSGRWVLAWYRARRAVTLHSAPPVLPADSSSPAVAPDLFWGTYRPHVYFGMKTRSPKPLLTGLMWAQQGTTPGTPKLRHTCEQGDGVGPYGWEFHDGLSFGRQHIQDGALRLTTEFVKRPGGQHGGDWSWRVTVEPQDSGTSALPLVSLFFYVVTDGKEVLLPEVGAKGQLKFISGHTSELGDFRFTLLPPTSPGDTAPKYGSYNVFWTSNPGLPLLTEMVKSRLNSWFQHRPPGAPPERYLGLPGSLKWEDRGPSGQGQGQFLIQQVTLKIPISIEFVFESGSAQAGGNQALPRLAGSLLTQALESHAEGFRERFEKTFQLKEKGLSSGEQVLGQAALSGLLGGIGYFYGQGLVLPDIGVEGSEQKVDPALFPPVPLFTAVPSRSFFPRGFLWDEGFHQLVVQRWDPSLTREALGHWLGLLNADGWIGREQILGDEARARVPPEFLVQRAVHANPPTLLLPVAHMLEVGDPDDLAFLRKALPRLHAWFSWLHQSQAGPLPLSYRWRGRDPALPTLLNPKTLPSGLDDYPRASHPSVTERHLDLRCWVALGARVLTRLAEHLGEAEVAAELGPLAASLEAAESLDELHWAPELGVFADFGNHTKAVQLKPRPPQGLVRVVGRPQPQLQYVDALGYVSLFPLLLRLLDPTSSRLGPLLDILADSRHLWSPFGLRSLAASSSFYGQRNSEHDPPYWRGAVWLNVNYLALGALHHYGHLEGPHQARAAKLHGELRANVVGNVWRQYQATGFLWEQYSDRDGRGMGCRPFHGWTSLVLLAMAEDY

[1] = test system: glucosylceramide synthesis; conditions: cells treated with NB-DNJ; cited from earlier work
[2] = assay type: in vivo; conditions: for Weight: NPC-affected cat S222, NB-DNJ treated, measured within 10 days before neuronal assessment
NPC^−/− mice = assay: Mouse model of NPC: symptoms and survival; assay type: in vivo
Description: Colonies of mutant mice expressing the NPC phenotype have been described (Pentchev et al., 1984, Miyawaki et al., 1986; Kitagawa, 1987), and has been validated by a number of criteria as an authentic model of the disease (Akaboshi et al., 1997). NPC mice display clinical signs of the disease around 6-8 weeks of age with mild intention tremor and ataxia. […] Death results by 10-12 weeks.
Breeding pairs of mice heterozygous for the mutation causing NPC were used to produce offspring that are NPC^−/− homozygotes. These animals, along with their normal wildtype littermates, were used in the following NB-DNJ drug study. Where indicated, NB-DNJ was administered daily by mixing with ground mouse chow. Mice were PCR genotyped 2-3 weeks of age to determine their genetic background.
[…] NPC^−/− mice, with ages ranging from 3-7 weeks, were entered into a treatment study. Seven were treated with 1200 mg/kg/day and six were untreated. […] By 10 weeks of age, all six untreated NPC^−/− mice died or were sacrificed according to veterinary animal care requirements. In contrast, 4 of 7 NPC^−/− mice treated with NB-DNJ lived into their twelfth week. […] In this experiment, untreated NPC^−/− mice survived 65±1 days (average ±SE; n=6), while NPC^−/− mice treated with NB-DNJ at 1200 mg/kg/day survived 88±4 days (n=7).

GM2 ganglioside = assay: Immunocytochemistry with anti-GM2 ganglioside antibodies in cat brain; assay type: in vivo
Description: The following sections highlight the histologic and lipid analysis findings for the study animals. As with humans, there is an increased expression of gangliosides in feline NPC neurons. […] There is a corresponding increase in neuronal ganglioside level and histology changes seen in NPC humans.
Immunocytochemical studies with anti-GM2 ganglioside antibodies were used to probe for ganglioside expression in treated vs. untreated cats in a qualitative manner.

[3] = test system: domestic cat model of Niemann-Pick C; assay: Feline model of NPC: neurologic and clinical findings; assay type: in vivo; set-up: Front leg Hopping / Rear leg hopping / Vision-Menace: scale not given here; conditions: for Ataxia / Front leg Hopping / Intention tremors / Rear leg hopping / Vision-Menace: NPC-affected cat S222, NB-DNJ treated
Procedure: A breeding colony for this animal model of NPC is being maintained to study the disease and its potential treatments (Brown et al (1996) J. Inherit Metab. Dis. 19:319-330).
From seven feline NPC carrier litter mates, normal and NPC-affected male and female cats were selected for the study. The affected female and unaffected male began treatment with NB-DNJ at 1200 mg/kg/day. […] During a brief recovery period for these animals, an unrelated normal cat was treated to determine the maximum tolerated dose for NB-DNJ in this species. Based on this dose-ranging work, the NPC-affected and unaffected litter mates were restarted with NB-DNJ at 50 mg/kg/day. Over the following weeks, the administration level was increased to 150 mg/kg/day. […] Except for brief intervals when the treatments were withheld because of transient appetite loss, the NB-DNJ dosages were continued for about three months. On this date, the animals were sacrificed for histologic and lipid analyses.
Cat number: S222; Status: NPC-affected, NB-DNJ-treated; […]; […]. […] […] also was noted to have bilateral luxating patellas at about the same time. […] Over the course of the next 20 weeks, her disease symptoms slowly worsened. However, on several occasions it was noted by the consulting neurologist that her symptoms were less severe than those of S221. […] The following is a tabulation of her neurologic and medical findings:

[4] = patients with Parkinson's disease, stroke and spinal cord injuries; cited from earlier work
[5] = NPC-affected cat S222, 100 mg/kg/day

For `CCCCN1C[C@H](O)[C@@H](O)[C@H](O)[C@H]1CO` [NB-DNJ, N-butyldeoxynojirimycin], the “Inhibition of alpha-glucosidase 1” value (alpha-glucosidase 1) is listed as “potent inhibitor”, the Glucosylceramide levels [1] is listed as “markedly reduced” and the Fur colour [2, 5] is listed as “light-coloured fur effect”. The Tolerability [2, 5] was “reasonably well handled”, the Appetite ([2]; NPC-affected cat S222, 100 mg/kg/day, relative to normal and NPC-affected cats) was “significantly reduced” and the Weight ([2]; Week 6.5) was 522 gms. For the same compound, the Weight ([2]; Week 12.5) was 965 gms, the Weight ([2]; Week 16) was 1265 gms and the Weight ([2]; Week 18.5) was 1390 gms. For the same compound, the Weight ([2]; Week 20.5) was 1453 gms, the Weight ([2]; Week 22.5) was 1469 gms and the Weight ([2]; Week 24.5) was 1495 gms. It also gave a Weight ([2]; Week 26.5) of 1525 gms, a Weight ([2]; Week 29) of 1565 gms and a Weight ([2]; Week 30.5) of 1590 gms. For the same compound, the Weight ([2]; Week 32.5) was 1677 gms, the Hepatotoxicity ([2]; NPC-affected cat S222, starting dose 1200 mg/kg/day) was “acutely hepatotoxic” and the Hepatotoxicity ([2]; cats, 150 mg/kg/day) was “hepatotoxic”. For the same compound, the Hepatotoxicity ([2]; cats, 1200 mg/kg/day) was “acutely hepatotoxic”, the “Appetite and overall responsiveness” value ([2]; normal cat S161, 100 mg/kg/day) was “decreased” and the Hair colour ([2]; normal cat S218, 100 mg/kg/day) was “markedly more beige”. For the same compound, the “Serum levels of liver enzymes” value ([2]; normal cat S218, 1200 mg/kg/day) was “dramatic elevation”, the Appetite ([2]; normal cat S218, eventual dosage 100 mg/kg/day) was “significantly less than that of a normal cat” and the Hepatotoxicity ([2]; normal cat S218, starting dose 1200 mg/kg/day) was “acutely hepatotoxic”. The “Weight at the end of the treatment period” value ([2]; normal female cat S218, 100 mg/kg/day, normal female cat expected about 4 kg) was “about 2.4 kg”, the “Symptoms of neurologic degeneration typical for NPC” value (NPC^−/− mice; NPC mice, 1200 mg/kg/day) was “qualitatively delaying” and the Increase in longevity (NPC^−/− mice; NPC mice, 1200 mg/kg/day versus untreated) was 26%. The “Mice displaying symptoms of neurologic effects” value (NPC^−/− mice; NPC^−/− mice, 1200 mg/kg/day in chow, by 8 weeks of age, untreated 5 out of 6) was “none”, the “Mice displaying any degree of symptoms” value (NPC^−/− mice; NPC^−/− mice, 1200 mg/kg/day, by 9 weeks of age, untreated all six) was 4 of 7 and the “Survival (average ±SE)” value (NPC^−/− mice; NPC^−/− mice, 1200 mg/kg/day, n=7, untreated 65±1 days) was 88 ± 4 days. For the same compound, the “Surviving mice displaying some degree of NPC-induced neural degeneration” value (NPC^−/− mice; NPC^−/− mice, 1200 mg/kg/day, twelfth week) was “Three of these four”, the “Mice that lived into their twelfth week” value (NPC^−/− mice; NPC^−/− mice, 1200 mg/kg/day, all untreated dead by 10 weeks) was 4 of 7 and the “GM2 immunoreactivity in granular cell layer of cerebellum” value (GM2 ganglioside; NPC cat treated with NB-DNJ) was “largely devoid of GM2 immunoreactivity”. The “GM2 labeling in Purkinje cells” value (GM2 ganglioside; NPC cat treated with NB-DNJ) was “qualitatively less GM2 labeling”, the “GM2 labeling in the cerebral cortex” value (GM2 ganglioside; NPC cat treated with NB-DNJ, compared to untreated NPC cat) was “qualitatively less severe” and the “Accumulation of glucosylceramide-containing glycolipids (e.g. GM2)” value (GM2 ganglioside; NPC cats) was “qualitatively decreases”. The “Severity of disease symptoms versus untreated NPC cat S221” value ([3]; NPC-affected cat S222, 100 mg/kg/day, noted by consulting neurologist) was “less severe”, the Ataxia ([3]; Week 6.5) was “none” and the “Front leg Hopping” value ([3]; Week 6.5) was 2. For the same compound, the Intention tremors ([3]; Week 6.5) was “none”, the Rear leg hopping ([3]; Week 6.5) was 2 and the Vision-Menace ([3]; Week 6.5) was 2. For the same compound, the Ataxia ([3]; Week 12.5) was “none”, the “Front leg Hopping” value ([3]; Week 12.5) was 2 and the Intention tremors ([3]; Week 12.5) was “mild”. For the same compound, the Vision-Menace ([3]; Week 12.5) was 1, the Rear leg hopping ([3]; Week 12.5, diagnosed with bilateral luxating patellas) was 2^† and the Ataxia ([3]; Week 16) was “none”. The “Front leg Hopping” value ([3]; Week 16) was 2, the Intention tremors ([3]; Week 16) was “mild” and the Rear leg hopping ([3]; Week 16) was 2. The Vision-Menace ([3]; Week 16) was 1, the Ataxia ([3]; Week 18.5) was “none” and the “Front leg Hopping” value ([3]; Week 18.5) was 2. The Intention tremors ([3]; Week 18.5) was “mild”, the Rear leg hopping ([3]; Week 18.5) was 1.5 and the Vision-Menace ([3]; Week 18.5) was 1.5. The Ataxia ([3]; Week 20.5) was “none”, the “Front leg Hopping” value ([3]; Week 20.5) was 2 and the Intention tremors ([3]; Week 20.5) was “mod”. For the same compound, the Rear leg hopping ([3]; Week 20.5) was 2, the Vision-Menace ([3]; Week 20.5) was “.5” and the Ataxia ([3]; Week 22.5) was “none”. The “Front leg Hopping” value ([3]; Week 22.5) was 1.5, the Intention tremors ([3]; Week 22.5) was “mild” and the Rear leg hopping ([3]; Week 22.5) was 1.5. The Vision-Menace ([3]; Week 22.5) was 1, the Ataxia ([3]; Week 24.5) was “none” and the “Front leg Hopping” value ([3]; Week 24.5) was 2. For the same compound, the Intention tremors ([3]; Week 24.5) was “mod”, the Rear leg hopping ([3]; Week 24.5) was 2 and the Vision-Menace ([3]; Week 24.5) was 1. The Ataxia ([3]; Week 26.5) was “none”, the “Front leg Hopping” value ([3]; Week 26.5) was 2 and the Intention tremors ([3]; Week 26.5) was “mild”. For the same compound, the Rear leg hopping ([3]; Week 26.5) was 1.5, the Vision-Menace ([3]; Week 26.5) was 1 and the Ataxia ([3]; Week 29) was “mod”. For the same compound, the “Front leg Hopping” value ([3]; Week 29) was 2, the Intention tremors ([3]; Week 29) was “mod” and the Rear leg hopping ([3]; Week 29) was 1. The Vision-Menace ([3]; Week 29) was 1, the Ataxia ([3]; Week 30.5) was “mild” and the Intention tremors ([3]; Week 30.5) was “mod”. For the same compound, the Vision-Menace ([3]; Week 30.5) was 1, the Ataxia ([3]; Week 32.5) was “mod” and the “Front leg Hopping” value ([3]; Week 32.5) was 1. For the same compound, the Intention tremors ([3]; Week 32.5) was “mod”, the Rear leg hopping ([3]; Week 32.5) was 1 and the Vision-Menace ([3]; Week 32.5) was 0.5. The “Symptoms of neurologic degeneration typical for NPC” value ([3]; cats, NB-DNJ treatment) was “qualitatively delays”.
In the case of GM1 ganglioside, the Neurodegenerative processes [4] is listed as “seem to improve”.
